Experimental data from article PMC12845078 (Pharmaceuticals, 2025).
Marks after values point to notes of the source that are not given here.

Columns and labels:
[1] = Pharmacokinetics of MT, 6-HMT and CBD in beagles after oral administration; conditions: male, beagle, dog, in vivo, po, 3 mg/kg, p.o.; for AUC(0-t) / AUC(0-inf) / Cmax / MRT last / Tmax: beagles; for MRT last: MRT(0–t); for half-life: t1/2, beagles
Protocol: Twelve male healthy adult beagles (weighing 10 ± 2 kg) were randomly divided into two groups. […] The drugs were dissolved in a physiological saline solution containing 5% castor oil, with an administration volume of 2 mL/kg. Blood samples were collected at the time points of pre-administration and 0.083, 0.25, 0.5, 0.75, 1, 1.5, 2, 4, 6, 8, and 12 h post-administration.
(§1) The column temperature was set at 40 °C.

[2] = Pharmacokinetics of MT, 6-HMT and CBD in SD rats (i.v. and oral); conditions: for MRT last: MRT(0–t)
Protocol: The drugs were dissolved in the same manner as described previously, with an administration volume of 5 mL/kg for all groups. Blood samples were collected at the time points of pre-administration and 0.033 (only for the intravenous administration group), 0.083, 0.25, 0.5, 0.75, 1, 1.5, 2, 4, 6, 8, and 12 h post-administration.
as §1

PEPT1 = biological target: T1, PEPT1 (Homo sapiens, UniProt P46059); assay: Uptake and uptake inhibition in MDCK/hPEPT1 cell model; assay type: cell-based; conditions: 4 °C and 37 °C
T1 construct: host or cells: MDCK
T1 sequence (P46059 1-708): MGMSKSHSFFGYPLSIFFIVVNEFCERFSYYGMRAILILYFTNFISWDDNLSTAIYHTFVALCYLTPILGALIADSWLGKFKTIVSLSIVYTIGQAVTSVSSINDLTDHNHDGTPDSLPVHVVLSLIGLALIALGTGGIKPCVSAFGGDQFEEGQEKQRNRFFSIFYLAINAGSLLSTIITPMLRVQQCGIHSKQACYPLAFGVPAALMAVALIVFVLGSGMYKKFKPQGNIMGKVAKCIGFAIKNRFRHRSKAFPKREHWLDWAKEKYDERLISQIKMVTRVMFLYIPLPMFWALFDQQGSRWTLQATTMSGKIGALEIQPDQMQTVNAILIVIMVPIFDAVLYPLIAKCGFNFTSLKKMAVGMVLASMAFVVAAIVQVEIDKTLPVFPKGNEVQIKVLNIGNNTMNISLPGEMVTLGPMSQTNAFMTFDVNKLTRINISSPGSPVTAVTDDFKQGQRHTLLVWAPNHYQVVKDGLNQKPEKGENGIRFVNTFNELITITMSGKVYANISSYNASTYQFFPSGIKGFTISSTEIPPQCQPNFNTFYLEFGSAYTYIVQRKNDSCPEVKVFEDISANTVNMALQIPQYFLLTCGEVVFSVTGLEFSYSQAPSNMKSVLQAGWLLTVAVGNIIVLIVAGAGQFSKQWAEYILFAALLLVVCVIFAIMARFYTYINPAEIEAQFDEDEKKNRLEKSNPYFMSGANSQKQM
Protocol: MDCK-PEPT1 cells were seeded into 24-well plates at a density of approximately 5 × 10^5 cells per well. When the cell confluency reached 60–70%, the culture medium was aspirated, and the cells were rinsed twice with HBSS pre-warmed to 37 °C. […] After incubation at 37 °C for 10 min, the buffer was aspirated, and ice-cold HBSS was immediately added to terminate the reaction, followed by rinsing three times. After drying the residual liquid, 200 μL of pure water were added to each well, and the cells were lysed by repeated freezing–thawing in liquid nitrogen three times. The cell lysates were collected, and the protein content was determined by the BCA method.
Cell uptake assessment: The concentration of the analyte in cells was corrected using the protein concentration of the cell lysate in each well.(4) Conclysate=Concdrug/ConcProtein
The uptake rate (U, pmol/mg/min) of the compound was calculated following Formula (5).(5) U=Clysate/P×t where Clysate is the amount of drug in the cell lysate (ng); P is cellular protein content (mg); t is incubation time (min).
The uptake ratio of the compound was calculated following Formula (6)(6) UR=U/ UMOCK where UMOCK is the uptake rate in MOCK-MDCK cells (pmol/mg/min).
The inhibition ratio was calculated following Formula (7)(7) IR=(1−Uwith inhibitor−Umock with inhibitor/Uwithout inhibitor−Umock without inhibitor)×100%

[3] = Plasma protein binding (rapid equilibrium dialysis), rat; assay type: in vitro ADME; conditions: plasma, pH 7.4
Protocol: (§3) After incubation for 20 min, a portion of the whole blood was centrifuged at 2500× g for 10 min at 4 °C to separate plasma; another portion of the whole blood was subjected to three cycles of freeze–thawing and ultrasonicated for 10 min to disrupt cells. Equal volumes of plasma and whole blood samples were added to the whole blood and plasma specimens, respectively, followed by protein precipitation with acetonitrile containing an internal standard (IS). […] The RED inserts were placed in the matching incubation plate: 200 µL of drug-containing matrix were added to the sample chamber, and 400 µL of PBS buffer (pH: 7.4) were added to the buffer chamber. After incubation in a constant-temperature shaking incubator for 6 h (37 °C), samples from the sample chamber and buffer chamber were diluted 1:1 with PBS or matrix, respectively, and proteins were precipitated with acetonitrile containing IS.

[4] = Plasma protein binding (rapid equilibrium dialysis), mouse; assay type: in vitro ADME; conditions: pH 7.4
Protocol: as §3

[5] = Plasma protein binding (rapid equilibrium dialysis), human; assay type: in vitro ADME; conditions: pH 7.4, read-out: Plasma Protein Binding (converted)
Protocol: as §3

[6] = Liver microsome protein binding, rat; assay type: in vitro ADME; conditions: liver microsomes, pH 7.4
[7] = Liver microsome protein binding, dog; assay type: in vitro ADME; conditions: beagle, liver microsomes, pH 7.4
Protocol: as §3

[8] = Liver microsome protein binding, human; assay type: in vitro ADME; conditions: liver microsomes, pH 7.4
Protocol: as §3

[9] = Brain tissue protein binding, rat; assay type: in vitro ADME; conditions: pH 7.4
Protocol: as §3

[10] = system: CYP1A2-mediated metabolism of MT; assay: Static DDI model prediction of CBD's impact on MT exposure, rat; conditions: input of static DDI model
Excerpt: (§2) (AUC when co-administered with the inhibitor) to AUC[contr] (AUC without the inhibitor).

[11] = system: CYP1A2-mediated metabolism of MT; assay: Static DDI model prediction of CBD's impact on MT exposure, beagle; parameters: species or system beagle dog; conditions: input of static DDI model
Excerpt: as §2

[12] = Plasma protein binding (rapid equilibrium dialysis), dog; conditions: beagle, dog, plasma, pH 7.4
Protocol: as §3

[13] = Pharmacokinetics of MT and CBD in rats after pre-administration of ABT
Protocol: Twelve SD rats were randomly divided into two groups. Both groups were first given an intragastric administration of 1-aminobenzotriazole (ABT) at a dose of 200 mg/kg. […] The administration volume for all groups was 5 mL/kg. […] Approximately 50 μL of venous blood were collected into heparin sodium anticoagulant tubes and placed on ice. The sample processing and storage methods were the same as described previously.
Subsequently, the resultant mixture was vortexed for 1 minute and centrifuged at 4 °C for 10 min at 18,800× g. […] The lowest limit of quantification (LLOQ) was established at 2 ng/mL.
Kromasil 100-5-C8 (2.1 × 50 mm) was selected for the separation of samples. The mobile phase consisted of solvent A (water with 0.1% formic acid and 5 mM ammonium acetate) and solvent B (methanol with 0.1% formic acid). […] The column temperature was set at 40 °C. The two eluents were 0.1% formic acid and 5 mM ammonium acetate in water (A) and 0.1% formic acid in methanol (B). […] The main mass spectrometry detection parameters were: dry gas 10 L/min, heated gas 10 L/min, collision gas 270 kPa, ion source temperature 300 °C, desolvation temperature 250 °C, and heating module temperature 400 °C.
Pharmacokinetic parameters: GraphPad Prism 10.1 software was utilized to draw the curves. Noncompartmental analysis was selected to calculate the major PK parameters, including clearance (CL), volume (V), half-life (t1/2), peak concentration (Cmax), and area under the curve (AUC), using WinNonlin 8.1.

[14] = male, Sprague-Dawley, rat, in vivo, po, 5 mg/kg, rats, p.o., MT + CBD (5 + 5) mg/kg
[15] = male, Sprague-Dawley, rat, in vivo, po, 5 mg/kg, rats, p.o., MT + CBD (5 + 20) mg/kg
[16] = male, Sprague-Dawley, rat, in vivo, po, 5 mg/kg, rats, p.o., MT + Vehicle 5 mg/kg
[17] = Sprague-Dawley, rat, in vivo, po, 5 mg/kg

COc1ccc2[nH]cc(CCNC(C)=O)c2c1 [MT, Melatonin]
AUC(0-t) ([1]; MT + CBD (3 + 3) mg/kg): 2540 ng·h/mL | AUC(0-t) ([1]; MT + Vehicle 3 mg/kg): 602 ng·h/mL | AUC(0-inf) ([1]; MT + CBD (3 + 3) mg/kg): 2550 ng·h/mL | AUC(0-inf) ([1]; MT + Vehicle 3 mg/kg): 612 ng·h/mL | Cmax ([1]; MT + CBD (3 + 3) mg/kg): 1360 ng/mL | Cmax ([1]; MT + Vehicle 3 mg/kg): 1080 ng/mL | MRT last ([1]; MT + CBD (3 + 3) mg/kg): 99.6 min | MRT last ([1]; MT + Vehicle 3 mg/kg): 30 min | Tmax ([1]; MT + CBD (3 + 3) mg/kg): 42.6 min | Tmax ([1]; MT + Vehicle 3 mg/kg): 13.2 min | half-life ([1]; MT + CBD (3 + 3) mg/kg): 55.2 min | half-life ([1]; MT + Vehicle 3 mg/kg): 19.8 min | AUC(0-t) ([2]; male, Sprague-Dawley, rat, in vivo, iv, 1 mg/kg, AUC(0–t), rats, i.v., MT + CBD (1 + 1) mg/kg): 260 ng·h/mL | MRT last ([2]; male, Sprague-Dawley, rat, in vivo, iv, 1 mg/kg, rats, i.v., MT + CBD (1 + 1) mg/kg): 10.2 min | bioavailability ([2]; male, Sprague-Dawley, rat, in vivo, po, 5 mg/kg): 20.5% | AUC(0-t) ([2]; male, Sprague-Dawley, rat, in vivo, po, 5 mg/kg, AUC(0–1h), rats, p.o., MT + CBD (5 + 5) mg/kg): 114 ng·h/mL | AUC(0-t) ([2]; male, Sprague-Dawley, rat, in vivo, po, 5 mg/kg, AUC(0–1h), rats, p.o., MT + CBD (5 + 20) mg/kg): 65.2 ng·h/mL | AUC(0-t) ([2]; male, Sprague-Dawley, rat, in vivo, po, 5 mg/kg, AUC(0–1h), rats, p.o., MT + Vehicle 5 mg/kg): 241 ng·h/mL | AUC(0-t) ([2]; male, Sprague-Dawley, rat, in vivo, po, 5 mg/kg, AUC(0–t), rats, p.o., MT + CBD (5 + 5) mg/kg): 138 ng·h/mL | AUC(0-t) ([2]; male, Sprague-Dawley, rat, in vivo, po, 5 mg/kg, AUC(0–t), rats, p.o., MT + CBD (5 + 20) mg/kg): 121 ng·h/mL | AUC(0-t) ([2]; male, Sprague-Dawley, rat, in vivo, po, 5 mg/kg, AUC(0–t), rats, p.o., MT + Vehicle 5 mg/kg): 267 ng·h/mL | Cmax [2, 14]: 212 ng/mL | Cmax [2, 15]: 99 ng/mL | Cmax [2, 16]: 588 ng/mL | MRT last [2, 14]: 39 min | MRT last [2, 15]: 79.8 min | MRT last [2, 16]: 40.2 min | Tmax [2, 14]: 19.8 min | Tmax [2, 15]: 8.4 min | Tmax [2, 16]: 10.2 min | effect of co-administered MT on pharmacokinetic parameters of CBD ([2]; rats, p.o., CBD 20 mg/kg with MT 0, 5 or 20 mg/kg): does not produce obvious pharmacokinetic-based interactions with CBD | t1/2 ([2]; rats, p.o., MT + CBD (5 + 5) mg/kg): 0.66 (0.14) h | t1/2 ([2]; rats, p.o., MT + CBD (5 + 20) mg/kg): 1.80 (0.94) * h | MT total exposure with CBD, as percent of MT alone ([2]; rats, p.o., high CBD dose): 45% | uptake rate of MT, MOCK cells vs transfected cells (PEPT1): no difference | fraction unbound at 6 h [3]: 0.425 | fraction unbound at 6 h [4]: 0.451 | fraction unbound at 6 h [5]: 0.388 | fraction unbound at 6 h [6]: 0.972 | fraction unbound at 6 h [7]: 0.78 | fraction unbound at 6 h [8]: 0.979 | fraction unbound at 6 h [9]: 0.315 | fm(CYP1A2), proportion of MT metabolized by CYP1A2 [10]: 0.92 | fm(CYP1A2), proportion of MT metabolized by CYP1A2 [11]: 0.92 | fraction unbound at 6 h [12]: 0.364 | AUC of MT reduced by co-administration of CBD ([13]; ABT-treated rats): 2.29 fold | Cmax of MT reduced by co-administration of CBD ([13]; ABT-treated rats): 2.3 fold | AUC(0-t) [13, 17]: 8840 ng·h/mL | Cmax [13, 17]: 2100 ng/mL | Tmax [13, 17]: 30 min | half-life [13, 17]: 78.6 min
